Target: ROCK2 (Homo sapiens (Human), UniProt O75116)
Experiment: ROCK assay (LABCHIP 3000 peptide phosphorylation assay)
Format: biochemical
Conditions: 5 μM ATP, 1.5 μM peptide substrate, dose-response
Description: The effectiveness of compounds of the present invention as ROCK inhibitors can be determined in a 30 μL assay containing 20 mM HEPES, pH 7.5, 20 mM MgCl2, 0.015% Brij-35, 4 mM DTT, 5 μM ATP and 1.5 μM peptide substrate (FITC-AHA-AKRRRLSSLRA-OH) (SEQ ID No. 1). Compounds were dissolved in DMSO so that the final concentration of DMSO was <2%, and the reaction was initiated with Rho kinase variants. After incubation, the reaction was terminated by the addition of EDTA and the phosphorylated and non-phosphorylated peptides separated using a LABCHIP® 3000 Reader (Caliper Life Sciences). […] Compounds were tested in dose-response format, and the inhibition of kinase activity was calculated at each concentration of compound. The inhibition data were fit using a curve-fitting program to determine the IC50; i.e., the concentration of compound required to inhibit 50% of kinase activity.

ROCK2, sequence (O75116 whole entry, species assumed): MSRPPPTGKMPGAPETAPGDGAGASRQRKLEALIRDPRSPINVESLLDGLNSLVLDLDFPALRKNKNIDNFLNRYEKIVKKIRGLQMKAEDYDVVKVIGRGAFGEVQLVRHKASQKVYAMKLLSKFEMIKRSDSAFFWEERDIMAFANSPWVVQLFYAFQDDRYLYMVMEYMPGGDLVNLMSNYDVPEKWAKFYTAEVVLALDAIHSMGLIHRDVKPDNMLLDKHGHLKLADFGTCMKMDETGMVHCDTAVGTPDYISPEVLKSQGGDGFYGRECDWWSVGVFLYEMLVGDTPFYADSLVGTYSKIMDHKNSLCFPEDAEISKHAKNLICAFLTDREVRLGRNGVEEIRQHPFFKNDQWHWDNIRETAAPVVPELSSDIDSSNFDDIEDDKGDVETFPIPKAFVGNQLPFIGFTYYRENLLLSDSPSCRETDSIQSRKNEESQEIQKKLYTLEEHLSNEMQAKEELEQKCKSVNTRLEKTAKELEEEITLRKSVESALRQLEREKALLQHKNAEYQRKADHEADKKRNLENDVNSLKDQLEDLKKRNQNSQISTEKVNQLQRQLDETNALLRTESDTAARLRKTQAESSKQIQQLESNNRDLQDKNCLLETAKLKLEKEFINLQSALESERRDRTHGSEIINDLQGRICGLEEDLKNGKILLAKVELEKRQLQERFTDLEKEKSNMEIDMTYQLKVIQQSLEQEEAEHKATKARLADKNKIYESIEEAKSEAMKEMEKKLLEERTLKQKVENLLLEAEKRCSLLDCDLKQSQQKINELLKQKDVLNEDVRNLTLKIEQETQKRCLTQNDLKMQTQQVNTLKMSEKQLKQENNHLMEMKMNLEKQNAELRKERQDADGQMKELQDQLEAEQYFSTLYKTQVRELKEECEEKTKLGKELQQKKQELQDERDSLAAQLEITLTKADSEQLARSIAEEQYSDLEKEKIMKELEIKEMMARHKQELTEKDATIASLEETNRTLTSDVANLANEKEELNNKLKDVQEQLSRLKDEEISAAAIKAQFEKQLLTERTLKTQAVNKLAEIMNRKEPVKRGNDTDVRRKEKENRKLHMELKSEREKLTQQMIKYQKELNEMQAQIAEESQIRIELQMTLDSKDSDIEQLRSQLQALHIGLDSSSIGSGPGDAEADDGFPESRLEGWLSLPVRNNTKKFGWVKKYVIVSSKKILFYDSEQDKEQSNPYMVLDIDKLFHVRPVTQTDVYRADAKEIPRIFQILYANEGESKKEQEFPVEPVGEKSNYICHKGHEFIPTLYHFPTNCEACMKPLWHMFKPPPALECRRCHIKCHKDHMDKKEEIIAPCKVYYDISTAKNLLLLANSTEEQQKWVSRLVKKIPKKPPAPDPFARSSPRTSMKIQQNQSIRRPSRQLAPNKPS

SMILES | IC50 [nM]
NC(=O)c1cccnc1Oc1ccc(CC(=O)N2CCc3cc(OCc4ccccc4)ccc32)cc1 [Example 059, 2-(4-(2-(5-(benzyloxy)indolin-1-yl)-2-oxoethyl)phenoxy) nicotinamide] | 98
NC(=O)c1cccnc1Oc1ccc(CC(=O)Nc2nc(-c3cccc4oc(=O)ccc34)cs2)cc1 [Example 061, 2-(4-(2-oxo-2-((4-(2-oxo-2H-chromen-5-yl)thiazol-2-yl)amino)ethyl)phe-noxy)nicotinamide] | 506
NC(=O)c1cccnc1Oc1ccc(CC(=O)Nc2nc(-c3cccc(OC(F)(F)F)c3)cs2)cc1 [Example 062] | 863
N#Cc1cccc(-c2csc(NC(=O)Cc3ccc(Oc4ncccc4C(N)=O)cc3)n2)c1 [Example 063, 2-(4-(2-((4-(3-cyanophenyl)thia-zol-2-yl)amino)-2-oxoethyl)phenoxy) nicotinamide] | 339
NC(=O)c1cccnc1Oc1ccc(CC(=O)Nc2nc(-c3cccc(F)c3)cs2)cc1 [Example 064, 2-(4-(2-((4-(3-fluorophenyl)thia-zol-2-yl)amino)-2-oxoethyl)phenoxy) nicotinamide] | 423
COC(=O)c1ccc2sc(NC(=O)Cc3ccc(Oc4ncccc4C(N)=O)cc3)nc2c1 [Example 065, methyl 2-(2-(4-((3-carbamoylpyridin-2-yl)oxy)phenyl)acet-amido)benzo[d]thi-azole-5-carboxylate] | 109
NC(=O)c1ccc2nc(NC(=O)Cc3ccc(Oc4ncccc4C(N)=O)cc3)sc2c1 [Example 066, 2-(2-(4-((3-carbamoylpyridin-2-yl)oxy)phenyl)acet-amido)benzo[d]thi-azole-6-carboxamide] | 830
COc1ccc2nc(NC(=O)Cc3ccc(Oc4ncccc4C(N)=O)cc3)sc2c1 [Example 067, 2-(4-(2-((6-methoxybenzo[d]thiazol-2-yl)amino)-2-oxoethyl)phenoxy) nicotinamide] | 89
Cc1ccc2[nH]c(NC(=O)Cc3ccc(Oc4ncccc4C(N)=O)cc3)nc2c1 [Example 068, 2-(4-(2-((5-methyl-1H-benzo[d]imidazol-2-yl)amino)-2-oxoethyl)phenoxy) nicotinamide] | 600
CCCS(=O)(=O)c1ccc2[nH]c(NC(=O)Cc3ccc(Oc4ncccc4C(N)=O)cc3)nc2c1 [Example 069, 2-(4-(2-oxo-2-((5-(propylsulfonyl)-1H-benzo[d]imidazol-2-yl)amino)ethyl)phe-noxy)nicotinamide] | 558
COC(=O)c1ccc2nc(NC(=O)Cc3ccc(Oc4ncccc4C(N)=O)cc3)sc2c1 [Example 070, methyl 2-(2-(4-((3-carbamoylpyridin-2-yl)oxy)phenyl)acet-amido)benzo[d]thi-azole-6-carboxylate] | 57
N#Cc1ccc2[nH]c(NC(=O)Cc3ccc(Oc4ncccc4C(N)=O)cc3)nc2c1 [Example 071, 2-(4-(2-((5-cyano-1H-benzo[d]imidazol-2-yl)amino)-2-oxoethyl)phenoxy) nicotinamide] | 621
NC(=O)c1cccnc1Oc1ccc(CC(=O)Nc2nc3cc(C(=O)c4ccccc4)ccc3[nH]2)cc1 [Example 072, 2-(4-(2-((5-benzoyl-1H-benzo[d]imidazol-2-yl)amino)-2-oxoethyl)phenoxy) nicotinamide] | 147
NC(=O)c1cccnc1Oc1ccc(CC(=O)Nc2nc3cccc(Cl)c3[nH]2)cc1 [Example 073, 2-(4-(2-((7-chloro-1H-benzo[d]imidazol-2-yl)amino)-2-oxoethyl)phenoxy) nicotinamide] | 244
COC(=O)c1ccc2c(c1)nc(NC(=O)Cc1ccc(Oc3ncccc3C(N)=O)cc1)n2C [Example 074, methyl 2-(2-(4-((3-carbamoylpyridin-2-yl)oxy)phenyl)acet-amido)-1-methyl-1H-benzo[d]imidazole-5-carboxylate] | 1100
Cn1nc(NC(=O)Cc2ccc(Oc3ncccc3C(N)=O)cc2)c2ccccc21 [Example 075, 2-(4-(2-((1-methyl-1H-indazol-3-yl)amino)-2-oxoethyl)phenoxy) nicotinamide] | 534
CS(=O)(=O)c1ccc2nc(NC(=O)Cc3ccc(Oc4ncccc4C(N)=O)cc3)sc2c1 [Example 076, 2-(4-(2-((6-(methylsulfonyl)benzo[d]thiazol-2-yl)amino)-2-oxoethyl)phenoxy) nicotinamide] | 332
Cc1cccc(Nc2ncnc3ccc(NC(=O)Cc4ccc(Oc5ncccc5C(N)=O)cc4)cc23)c1 [Example 077, 2-(4-(2-oxo-2-((4-(m-tolylamino)quinaz-olin-6-yl)amino)ethyl)phe-noxy)nicotinamide] | 42

SMILES | IC50 [nM]
Cc1sc(NC(=O)Cc2ccc(Oc3ncccc3C(N)=O)cc2)nc1-c1ccc(F)cc1 [Example 078, 2-(4-(2-((4-(4-fluorophenyl)-5-methylthiazol-2-yl)amino)-2-oxoethyl)phenoxy) nicotinamide] | 96
NC(=O)c1cccnc1Oc1ccc(CC(=O)Nc2nc3ccccc3n2Cc2ccccc2)cc1Cl [Example 079, 2-(4-(2-((1-benzyl-1H-benzo[d]imidazol-2-yl)amino)-2-oxoethyl)-2-chlorophenoxy)nico-tinamide] | 181
Cc1sc(NC(=O)Cc2ccc(Oc3ncccc3C(N)=O)c(Cl)c2)nc1-c1ccccc1F [Example 080, 2-(2-chloro-4-(2-((4-(2-fluorophenyl)-5-methylthiazol-2-yl)amino)-2-oxoethyl)phenoxy) nicotinamide] | 15
Cc1nc2sccn2c1-c1csc(NC(=O)Cc2ccc(Oc3ncccc3C(N)=O)c(Cl)c2)n1 [Example 081, 2-(2-chloro-4-(2-((4-(6-methylimidazo[2,1-b]thiazol-5-yl)thiazol-2-yl)amino)-2-oxoethyl)phenoxy) nicotinamide] | 59
COc1cccn2nc(NC(=O)Cc3ccc(Oc4ncccc4C(N)=O)c(Cl)c3)nc12 [Example 082, 2-(2-chloro-4-(2-((8-methoxy-[1,2,4]triazolo[1,5-a]pyridin-2-yl)amino)-2-oxoethyl)phenoxy) nicotinamide] | 6
COc1cccn2nc(NC(=O)Cc3ccc(Oc4ncccc4C(N)=O)cc3)nc12 [Example 083, 2-(4-(2-((8-methoxy-[1,2,4]triazolo[1,5-a]pyridin-2-yl)amino)-2-oxoethyl)phenoxy) nicotinamide] | 106
CN1CCc2sc(NC(=O)Cc3ccc(Oc4ncccc4C(N)=O)c(F)c3)nc2C1 [Example 084, 2-(2-fluoro-4-(2-((5-methyl-4,5,6,7-tetrahydrothiazolo [4,5-c]pyridin-2-yl)amino)-2-oxoethyl)phenoxy) nicotinamide] | 947
Cc1sc(NC(=O)Cc2ccc(Oc3ncccc3C(N)=O)c(F)c2)nc1-c1ccc(F)nc1 [Example 085, 2-(2-fluoro-4-(2-((4-(6-fluoropyridin-3-yl)-5-methylthiazol-2-yl)amino)-2-oxoethyl)phenoxy) nicotinamide] | 176
Cc1sc(NC(=O)Cc2ccc(Oc3ncccc3C(N)=O)c(F)c2)nc1-c1ccnn1C [Example 086, 2-(2-fluoro-4-(2-((5-methyl-4-(1-methyl-1H-pyrazol-5-yl)thiazol-2-yl)amino)-2-oxoethyl)phenoxy) nicotinamide] | 137
Cc1sc(NC(=O)Cc2ccc(Oc3ncccc3C(N)=O)c(F)c2)nc1-c1ccccn1 [Example 087, 2-(2-fluoro-4-(2-((5-methyl-4-(pyridin-2-yl)thiazol-2-yl)amino)-2-oxoethyl)phenoxy) nicotinamide] | 47
Cc1cnc(NC(=O)Cc2ccc(Oc3ncccc3C(N)=O)c(F)c2)s1 [Example 088, 2-(2-fluoro-4-(2-((5-methylthiazol-2-yl)amino)-2-oxoethyl)phenoxy) nicotinamide] | 126
Cc1nccc(-c2nc(NC(=O)Cc3ccc(Oc4ncccc4C(N)=O)c(F)c3)sc2C)n1 [Example 089, 2-(2-fluoro-4-(2-((5-methyl-4-(2-methylpyrimidin-4-yl)thiazol-2-yl)amino)-2-oxoethyl)phenoxy) nicotinamide] | 14
NC(=O)c1cccnc1Oc1ccc(CC(=O)Nc2nnc(-c3cccnc3)s2)cc1F [Example 090, 2-(2-fluoro-4-(2-oxo-2-((5-(pyridin-3-yl)-1,3,4-thiadiazol-2-yl)amino)ethyl)phe-noxy)nicotinamide] | 419
NC(=O)c1cccnc1Oc1ccc(CC(=O)Nc2nnc(C(F)(F)F)s2)cc1F [Example 091, 2-(2-fluoro-4-(2-oxo-2-((5-(trifluoromethyl)-1,3,4-thiadiazol-2-yl)amino)ethyl)phe-noxy)nicotinamide] | 874
NC(=O)c1cccnc1Oc1ccc(CC(=O)Nc2nnc(C3CC3)s2)cc1F [Example 092, 2-(4-(2-((5-cyclopropyl-1,3,4-thiadiazol-2-yl)amino)-2-oxoethyl)-2-fluorophenoxy)nico-tinamide] | 361
COc1ccc(Cc2nnc(NC(=O)Cc3ccc(Oc4ncccc4C(N)=O)c(F)c3)s2)cc1OC [Example 093, 2-(4-(2-((5-(3,4-dimethoxybenzyl)-1,3,4-thiadiazol-2-yl)amino)-2-oxoethyl)-2-fluorophenoxy)nico-tinamide] | 213
COc1cccn2nc(NC(=O)Cc3ccc(Oc4ncccc4C(N)=O)c(F)c3)nc12 [Example 094, 2-(2-fluoro-4-(2-((8-methoxy-[1,2,4]triazolo[1,5-a]pyridin-2-yl)amino)-2-oxoethyl)phenoxy) nicotinamide] | 15
CN1CCC(Oc2ccc(NC(=O)Cc3ccc(Oc4ncccc4C(N)=O)c(Cl)c3)cc2)CC1 [Example 095, 2-(2-chloro-4-(2-((4-((1-methylpiperidin-4-yl)oxy)phenyl)ami-no)-2-oxoethyl)phenoxy) nicotinamide] | 113

Reference: patent US11306081B2, “Phenylacetamides as inhibitors of rock” (BRISTOL-MYERS SQUIBB COMPANY, priority 2017, dated 2022)
